Measured values: patent publication US7473711B2, “Androgen modulators” (Pfizer Inc., priority 2004, dated 2009)
Substitutions are numbered along the chain they refer to. Like-named read-outs stand apart in the source and are kept apart here.

Assays:
spinal BMD = details: after 7 years of treatment; cited from earlier work
[1] = biological target: T1, androgen receptor in MDA-MB453-MMTV clone 54-19 cells (Homo sapiens, UniProt P10275); test: AR antagonist cell assay (MMTV-luciferase reporter, 100 pM DHT); type: cell-based
T1 sequence (P10275 1-920 Q868H): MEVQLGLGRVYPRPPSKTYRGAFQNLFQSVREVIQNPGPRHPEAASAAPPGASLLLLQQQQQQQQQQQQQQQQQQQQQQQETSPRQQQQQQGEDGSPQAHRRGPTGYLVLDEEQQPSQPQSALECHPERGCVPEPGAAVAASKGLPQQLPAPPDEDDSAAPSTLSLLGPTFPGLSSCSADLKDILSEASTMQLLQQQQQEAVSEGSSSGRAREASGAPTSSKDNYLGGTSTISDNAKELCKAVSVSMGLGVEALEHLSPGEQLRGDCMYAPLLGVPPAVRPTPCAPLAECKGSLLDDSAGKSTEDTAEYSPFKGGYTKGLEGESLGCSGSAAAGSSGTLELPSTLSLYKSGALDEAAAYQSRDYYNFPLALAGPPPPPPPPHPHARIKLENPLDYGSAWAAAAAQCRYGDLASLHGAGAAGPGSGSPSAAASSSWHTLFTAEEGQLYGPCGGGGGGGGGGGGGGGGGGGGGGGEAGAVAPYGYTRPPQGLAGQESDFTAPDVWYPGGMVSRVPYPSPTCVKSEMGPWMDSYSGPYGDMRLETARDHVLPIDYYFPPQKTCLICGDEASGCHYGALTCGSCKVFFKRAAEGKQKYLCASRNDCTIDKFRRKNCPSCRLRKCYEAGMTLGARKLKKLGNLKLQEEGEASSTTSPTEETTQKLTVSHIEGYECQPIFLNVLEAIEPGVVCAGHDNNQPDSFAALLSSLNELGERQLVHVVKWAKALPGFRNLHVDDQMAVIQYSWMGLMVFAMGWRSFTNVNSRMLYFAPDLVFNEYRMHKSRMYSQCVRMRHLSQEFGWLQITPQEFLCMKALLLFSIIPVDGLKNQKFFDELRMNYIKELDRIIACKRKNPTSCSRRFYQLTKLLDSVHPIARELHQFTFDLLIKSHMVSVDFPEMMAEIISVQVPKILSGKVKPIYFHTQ
Experimental: The compounds ability to antagonize the effects of androgen on the androgen receptor were determined in a whole cell assay as described immediately below.
Experimental Procedure for AR Antagonist Cell Assay
Cell line: MDA-MB453-MMTV clone 54-19. This cell line is a stable transfected cell line with MDA-MB453 cell background (a human breast tumor cell line expressing androgen receptor). A MMTV minimal promoter containing ARE was first cloned in front of a firefly luciferase reporter gene. Then the cascade was cloned into transfection vector pUV120puro. Electroporation method was used for transfecting MDA-MB-453 cell. Puromycin resistant stable cell line was selected. Cell Culture Media and Reagents:
Culture medium: DMEM (high glucose, Gibco cat #: 11960-044), 10% FBS, and 1% L-glutamine
Plating medium: DMEM (phenol red free), 10% charcoal treated HyClone serum, 1% L-glutamine
Assay medium: DMEM (phenol red free), 1% charcoal treated HyClone serum, 1% L-glutamine, and 1% penicillin/streptomycin
3X luciferase buffer: 2% beta-mercaptoethanol, 0.6% ATP, 0.0135% luciferine in cell lysis buffer
• 1. Cells are maintained in culture medium, splitting cells when they reach 80-90% confluence • 2. To test compounds, 10,000 cells/well are plated to opaque 96 cell culture plate in 100 ul/well plating medium, culture for overnight at 37° C. in cell culture incubator • 3. Carefully remove plating medium, then add 80 ul/well of pre-warmed assay medium, add 10 ul/well testing compound (final concentration at) 1000 nM, 200 nM, 40 nM, 8 nM, 1.6 nM, and 0.32 nM), incubate at 37° C. for 30 minutes • 4. Add 10 ul/well freshly prepared DHT (final concentration at 100 pM) to each well, incubate at 37° C. for 17 hr (overnight) • 5. Add 50 ul/well 3X luciferase buffer, incubate at room temperature for 5 minutes, then count on Luminometer
The fold induction over background by 100 pM DHT in the absence of testing compounds is standardized as 100% and experimental result is expressed as percentage of inhibition by testing compounds.
The results are reported as the mean of multiple tests as described below (the numbers of tests are indicated in the footnote). N.D. denotes that the compound was not tested.

[2] = biological target: T2, hAR (human androgen receptor) (Homo sapiens, UniProt P10275); test: Competitive binding analysis on hAR extracts with 3H-DHT tracer
T2 construct: made in house; host or cells: baculovirus/Sf9 insect cells (extract)
T2 sequence (P10275 1-920): T1 sequence (P10275 1-920 Q868H) with H868Q
Experimental: The compounds of Formula I have affinity for the androgen receptor. […] The description below describes how the assay was carried out.
Competitive binding analysis was performed on baculovirus/Sf9 generated hAR extracts in the presence or absence of different concentrations of test agent and a fixed concentration of ^3H-dihydrotestosterone (^3H-DHT) as tracer. This binding assay method is a modification of a protocol previously described (Liao S., et. al. J. Steroid Biochem. 20:11-17 1984). Briefly, progressively decreasing concentrations of compounds are incubated in the presence of hAR extract (Chang et al. P.N.A.S. Vol. 89, pp. […], 1992), hydroxylapatite, and 1 nM ^3H-DHT for one hour at 4° C. Subsequently, the binding reactions are washed three times to completely remove excess unbound ^3H-DHT. hAR bound ^3H-DHT levels are determined in the presence of compounds (i.e. competitive binding) and compared to levels bound when no competitor is present (i.e. maximum binding). Compound binding affinity to the hAR is expressed as the concentration of compound at which one half of the maximum binding is inhibited. Table II below provides the results that were obtained for selected compounds (reported data is the mean of multiple tests as shown below)

[3] = MDA-MB453-MMTV clone 54-19, inhibition of 100 pM DHT induced luciferase, 17 hr; mean of multiple tests; read-out: AR Cell IC50
[4] = baculovirus/Sf9 hAR extract, 1 nM 3H-DHT, one hour at 4° C, mean of multiple tests, read-out: AR Binding IC50

Compound	increase in spinal BMD (spinal BMD) [%]	IC50 ([1]; read-out: AR Cell IC50; MDA-MB453-MMTV clone 54-19, inhibition of 100 pM DHT induced luciferase, 17 hr; mean of multiple tests) [nM]	IC50 [2] [nM]	IC50 [1, 3] [nM]	IC50 [2, 4] [nM]
NCCCC(O)(P(=O)(O)O)P(=O)(O)O [alendronate]	≤ 11				
CC(CCOc1ccc(C#N)c(C(F)(F)F)c1)Oc1ccc(C#N)c(C(F)(F)F)c1 (stereo not drawn) [Example 13, 4,4′-[Butane-1,3-diylbis(oxy)]bis[2-(trifluoromethyl)benzonitrile]]		100	10		
N#Cc1ccc(OCCCOc2ccc(C#N)c(C(F)(F)F)c2)cc1C(F)(F)F [Example 11, 4,4′-[Propane-1,3-diylbis(oxy)]bis[2-(trifluoromethyl)benzonitrile]]				> 1000	165
CC(COc1ccc(C#N)c(C(F)(F)F)c1)COc1ccc(C#N)c(C(F)(F)F)c1 [Example 12, 4,4′-[(2-Methylpropane-1,3-diyl)bis(oxy)]bis[2-(trifluoromethyl)benzonitrile]]				> 1000	233
CCOCC(COc1ccc(C#N)c(C(F)(F)F)c1)Oc1ccc(C#N)c(C(F)(F)F)c1 (stereo not drawn) [Example 6, 4,4′-[(3-Ethoxypropane-1,2-diyl)bis(oxy)]bis[2-(trifluoromethyl)benzonitrile]]				> 1000	124
CC(CCC(C)Oc1ccc(C#N)c(C(F)(F)F)c1)Oc1ccc(C#N)c(C(F)(F)F)c1 (stereo not drawn) [Example 22, 4,4′-[Hexane-2,5-diylbis(oxy)]bis[2-(trifluoromethyl)benzonitrile]]				322	293
CCCC(Oc1ccc(C#N)c(C(F)(F)F)c1)C(CC)COc1ccc(C#N)c(C(F)(F)F)c1 (stereo not drawn) [Example 19, 4-{[3-(4-Cyanophenoxy)-2-ethylhexyl]oxy}bis[2-(trifluoromethyl)benzonitrile]]				> 1000	216
C[C@H](CCOc1ccc(C#N)c(C(F)(F)F)c1)Oc1ccc(C#N)c(C(F)(F)F)c1 [Example 14, 4-({(3R)-3-[4-Cyano-3-(trifluoromethyl)phenoxy]butyl}oxy)-2-(trifluoromethyl)benzonitrile]				905	281
C[C@@H](CCOc1ccc(C#N)c(C(F)(F)F)c1)Oc1ccc(C#N)c(C(F)(F)F)c1 [Example 15, 4-({(3S)-3-[4-Cyano-3-(trifluoromethyl)phenoxy]butyl}oxy)-2-(trifluoromethyl)benzonitrile]			49	257	
CCCC(CCCOc1ccc(C#N)c(C(F)(F)F)c1)Oc1ccc(C#N)c(C(F)(F)F)c1 (stereo not drawn) [Example 21, 4,4′-[Heptane-1,4-diylbis(oxy)]bis[2-(trifluoromethyl)benzonitrile]]				> 1000	233
N#Cc1ccc(O[C@H](CO)COc2ccccc2)cc1C(F)(F)F [Example 29, (1R)-4-(1-Hydroxymethyl-2-phenoxy-ethoxy)-2-trifluoromethyl-benzonitrile]			44	117	
